The test system of this assay is Mus musculus. The experiment in a line: Antiinflammatory activity in topically dosed CD1 mouse assessed as inhibition of PMA-induced ear edema at 0.5 mg/ear. The class given is functional.
Consider `CC[C@H]1OC(=O)[C@H](C)[C@@H](O[C@H]2C[C@@](C)(OC)[C@@H](O)[C@H](C)O2)[C@H](C)[C@@H](O[C@H]2O[C@@H](C)C[C@@H](NCCNCCNCc3nccs3)[C@@H]2O)[C@](C)(O)C[C@@H](C)[C@H](O)[C@H](C)[C@@H](O)[C@]1(C)O`, for which the Inhibition turned out to be 43%.

As to `CC[C@H]1OC(=O)[C@H](C)[C@@H](O[C@H]2C[C@@](C)(OC)[C@@H](O)[C@H](C)O2)[C@H](C)[C@@H](O[C@H]2O[C@@H](C)C[C@@H](N(C)Cc3ccccc3)[C@@H]2O)[C@](C)(O)C[C@@H](C)[C@H](O)[C@H](C)[C@@H](O)[C@]1(C)O`, the Inhibition is 58%. For the compound `CC[C@H]1OC(=O)[C@H](C)[C@@H](O[C@H]2C[C@@](C)(OC)[C@@H](O)[C@H](C)O2)[C@H](C)[C@@H](O[C@@H]2O[C@H](C)C[C@H](N(C)C)[C@H]2O)[C@](C)(O)C[C@@H](C)C(=O)[C@H](C)[C@@H](O)[C@]1(C)O` [ERYTHROMYCIN], the Inhibition is 42%. As to `CC[C@H]1OC(=O)[C@H](C)[C@@H](O)[C@H](C)[C@@H](O[C@H]2O[C@@H](C)C[C@@H](NCCNCCNCc3nccs3)[C@@H]2O)[C@](C)(O)C[C@@H](C)[C@H](O)[C@H](C)[C@@H](O)[C@]1(C)O`, the Inhibition was determined as 45%. As for `CC[C@H]1OC(=O)[C@H](C)[C@@H](O[C@H]2C[C@@](C)(OC)[C@@H](O)[C@H](C)O2)[C@H](C)[C@@H](O[C@H]2O[C@@H](C)C[C@@H](N(C)C(=O)CNCCNCc3ccccc3)[C@@H]2O)[C@](C)(O)C[C@@H](C)[C@H](O)[C@H](C)[C@@H](O)[C@]1(C)O`, the figure is 87%. As for `CC[C@H]1OC(=O)[C@H](C)[C@@H](O[C@H]2C[C@@](C)(OC)[C@@H](O)[C@H](C)O2)[C@H](C)[C@@H](O[C@H]2O[C@@H](C)C[C@@H](N(C)C(=O)CNCCC(C)C)[C@@H]2O)[C@](C)(O)C[C@@H](C)[C@H](O)[C@H](C)[C@@H](O)[C@]1(C)O`, the Inhibition was 18%.

For the compound `CC[C@H]1OC(=O)[C@H](C)[C@@H](O)[C@H](C)[C@@H](O[C@H]2O[C@@H](C)C[C@@H](N(C)CCCNCc3nccs3)[C@@H]2O)[C@](C)(O)C[C@@H](C)[C@H](O)[C@H](C)[C@@H](O)[C@]1(C)O`, the Inhibition stood at 53%. Regarding `CC[C@H]1OC(=O)[C@H](C)[C@@H](O[C@H]2C[C@@](C)(OC)[C@@H](O)[C@H](C)O2)[C@H](C)[C@@H](O[C@H]2O[C@@H](C)C[C@@H](N(C)CCCNCc3nccs3)[C@@H]2O)[C@](C)(O)C[C@@H](C)[C@H](O)[C@H](C)[C@@H](O)[C@]1(C)O`, the Inhibition stood at 74%. As for `CC[C@H]1OC(=O)[C@H](C)[C@@H](O[C@H]2C[C@@](C)(OC)[C@@H](O)[C@H](C)O2)[C@H](C)[C@@H](O[C@H]2O[C@@H](C)C[C@@H](N(C)C(=O)CNCCN(C)C)[C@@H]2O)[C@](C)(O)C[C@@H](C)[C@H](O)[C@H](C)[C@@H](O)[C@]1(C)O`, the figure is 31%; as for `CC[C@H]1OC(=O)[C@H](C)[C@@H](O[C@H]2C[C@@](C)(OC)[C@@H](O)[C@H](C)O2)[C@H](C)[C@@H](O[C@H]2O[C@@H](C)C[C@@H](N(C)C(C)=O)[C@@H]2O)[C@](C)(O)C[C@@H](C)[C@H](O)[C@H](C)[C@@H](O)[C@]1(C)O`, 79%. As for `CC[C@H]1OC(=O)[C@H](C)[C@@H](O)[C@H](C)[C@@H](O[C@H]2O[C@@H](C)C[C@@H](N(C)C(C)=O)[C@@H]2O)[C@](C)(O)C[C@@H](C)[C@H](O)[C@H](C)[C@@H](O)[C@]1(C)O`, the figure is 66%; as for `CC[C@H]1OC(=O)[C@H](C)[C@@H](O[C@H]2C[C@@](C)(OC)[C@@H](O)[C@H](C)O2)[C@H](C)[C@@H](O[C@H]2O[C@@H](C)C[C@@H](N(C)C(=O)CNCc3ccccc3)[C@@H]2O)[C@](C)(O)C[C@@H](C)[C@H](O)[C@H](C)[C@@H](O)[C@]1(C)O`, 71%.

The Inhibition is the share of the control response that was lost under treatment.

The values are drawn from ChEMBL document CHEMBL1139749, “Design, synthesis and in vivo activity of 9-(S)-dihydroerythromycin derivatives as potent anti-inflammatory agents” (2006).
